Data taken from patent publication US6589984B1, “Benzofurylpyrone derivatives” (Teijin Limited, priority 1998, dated 2003).

Tested on: Human hepatic cancer cells HepG2
Test: TG production inhibiting activity (14C-acetic acid incorporation into TG) in HepG2 cells
Assay type: cell-based
Settings: Homo sapiens, HepG2, group criterion
In short: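 HepG2 cells cultured 6 days in eRDF with 10% bovine serum, then in serum-free eRDF given compound (diluted from 20 mM DMSO stock) plus 14C-acetic acid for one day at 37 °C, 5% CO2. Lipids extracted with hexane/isopropanol 2:1 and separated by TLC; the TG spot was cut out and counted by liquid scintillation.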

[1] = alternatives: IC50 at least 10 μM and less than 100 μM, or at least 5% and less than 30% inhibition at 1 μM, or at least 30% and less than 50% inhibition at 10 μM
[2] = alternatives: IC50 less than 10 μM, or at least 30% inhibition at 1 μM, or at least 50% inhibition at 10 μM

Row | IC50 [1] [µM] | IC50 [2] [µM] | SMILES
1 | 10 to 100 |  | Cc1c(-c2cc3cc(N(C)C(=O)C(C)C)ccc3o2)oc(=O)c(C)c1O [Example 254, 3,5-dimethyl-4-hydroxy-6-(5-(N-isobutyryl-N-methylamino)benzofuran-2-yl)-2H-pyran-2-one]
2 |  | < 10 | CC(=O)Oc1c(C)c(-c2cc3cc(OS(=O)(=O)C(F)(F)F)ccc3o2)oc(=O)c1C [Example 257, 4-acetyloxy-3,5-dimethyl-6-(5-trifluoromethanesulfonyloxybenzofuran-2-yl)-2H-pyran-2-one]
3 | 10 to 100 |  | Cc1c(-c2cc3c(OCc4ccccc4)cccc3o2)oc(=O)c(C)c1O [Example 258, 6-(4-benzyloxybenzofuran-2-yl)-3,5-dimethyl-4-hydroxy-2H-pyran-2-one]
4 |  | < 10 | COC(=O)c1ccc2oc(-c3oc(=O)c(C)c(OC(C)=O)c3C)cc2c1 [Example 259, 4-acetyloxy-3,5-dimethyl-6-(5-(methoxycarbonyl)benzofuran-2-yl)-2H-pyran-2-one]
5 |  | < 10 | CC(=O)Oc1c(C)c(-c2cc3c(OCc4ccccc4)cccc3o2)oc(=O)c1C [Example 260, 4-acetyloxy-6-(4-benzyloxybenzofuran-2-yl)-3,5-dimethyl-2H-pyran-2-one]
6 | 10 to 100 |  | CC(=O)Oc1c(C)c(-c2cc3cc(O)ccc3o2)oc(=O)c1C [Example 261, 4-acetyloxy-3,5-dimethyl-6-(5-hydroxybenzofuran-2-yl)-2H-pyran-2-one]
7 | 10 to 100 |  | Cc1c(-c2cc3cc(O)ccc3o2)oc(=O)c(C)c1O [Example 262, 3,5-dimethyl-4-hydroxy-6-(5-hydroxybenzofuran-2-yl)-2H-pyran-2-one]
8 | 10 to 100 |  | COc1ccc(C(=O)Oc2ccc3oc(-c4oc(=O)c(C)c(OC(C)=O)c4C)cc3c2)cc1 [Example 263, 4-acetyloxy-3,5-dimethyl-6-(5-(4-methoxybenzoyloxy)benzofuran-2-yl)-2H-pyran-2-one]
9 | 10 to 100 |  | CC(=O)Oc1c(C)c(-c2cc3cc(C(=O)O)ccc3o2)oc(=O)c1C [Example 264, 4-acetyloxy-6-(5-carboxybenzofuran-2-yl)-3,5-dimethyl-2H-pyran-2-one]
10 |  | < 10 | CC(=O)Oc1c(C)c(-c2cc3c(OC(C)=O)cccc3o2)oc(=O)c1C [Example 265, 4-acetyloxy-6-(4-acetyloxybenzofuran-2-yl)-3,5-dimethyl-2H-pyran-2-one]
11 | 10 to 100 |  | COc1cccc2oc(-c3oc(=O)c(C)c(OC(C)=O)c3C)cc12 [Example 266, 4-acetyloxy-3,5-dimethyl-6-(4-methoxybenzofuran-2-yl)-2H-pyran-2-one]
12 | 10 to 100 |  | COc1cccc2oc(-c3oc(=O)c(C)c(O)c3C)cc12 [Example 267, 3,5-dimethyl-4-hydroxy-6-(4-methoxybenzofuran-2-yl)-2H-pyran-2-one]
13 |  | < 10 | COc1ccc2oc(-c3oc(=O)c(C)c(OC(C)=O)c3C)cc2c1 [Example 268, 4-acetyloxy-3,5-dimethyl-6-(5-methoxybenzofuran-2-yl)-2H-pyran-2-one]
14 | 10 to 100 |  | CC(=O)Oc1ccc2oc(-c3oc(=O)c(C)c(OC(C)=O)c3C)cc2c1 [Example 269, 4-acetyloxy-6-(5-acetyloxybenzofuran-2-yl)-3,5-dimethyl-2H-pyran-2-one]
15 |  | < 10 | CC(=O)Oc1c(C)c(-c2cc3cc(OCc4ccccc4)ccc3o2)oc(=O)c1C [Example 270, 4-acetyloxy-6-(5-benzyloxybenzofuran-2-yl)-3,5-dimethyl-2H-pyran-2-one]
16 |  | < 10 | Cc1c(-c2cc3cc(OCc4ccccc4)ccc3o2)oc(=O)c(C)c1O [Example 271, 6-(5-benzyloxybenzofuran-2-yl)-3,5-dimethyl-4-hydroxy-2H-pyran-2-one]
17 | 10 to 100 |  | Cc1c(-c2cc3ccc(O)cc3o2)oc(=O)c(C)c1O [Example 272, 3,5-dimethyl-4-hydroxy-6-(6-hydroxybenzofuran-2-yl)-2H-pyran-2-one]
18 | 10 to 100 |  | COc1ccc2cc(-c3oc(=O)c(C)c(OC(C)=O)c3C)oc2c1 [Example 273, 4-acetyloxy-3,5-dimethyl-6-(6-methoxybenzofuran-2-yl)-2H-pyran-2-one]
19 |  | < 10 | CC(=O)Oc1c(C)c(-c2cc3cc(OS(=O)(=O)c4ccc(C)cc4)ccc3o2)oc(=O)c1C [Example 274, 4-acetyloxy-3,5-dimethyl-6-(5-p-toluenesulfonyloxybenzofuran-2-yl)-2H-pyran-2-one]
20 | 10 to 100 |  | CC(=O)Oc1ccc2cc(-c3oc(=O)c(C)c(OC(C)=O)c3C)oc2c1 [Example 275, 4-acetyloxy-6-(6-acetyloxybenzofuran-2-yl)-3,5-dimethyl-2H-pyran-2-one]

Row | IC50 [1] [µM] | IC50 [2] [µM] | SMILES
21 | 10 to 100 |  | COC(=O)CCOc1ccc2cc(-c3oc(=O)c(C)c(OC(C)=O)c3C)oc2c1 [Example 278, 4-acetyloxy-3,5-dimethyl-6-(6-(2-(methoxycarbonyl)ethoxy)benzofuran-2-yl)-2H-pyran-2-one]
22 | 10 to 100 |  | CC(=O)OCCOc1ccc2cc(-c3oc(=O)c(C)c(OC(C)=O)c3C)oc2c1 [Example 280, 4-acetyloxy-6-(6-(2-(acetyloxy)ethoxy)benzofuran-2-yl)-3,5-dimethyl-2H-pyran-2-one]
23 | 10 to 100 |  | Cc1c(-c2cc3cccc(O)c3o2)oc(=O)c(C)c1O [Example 281, 3,5-dimethyl-4-hydroxy-6-(7-hydroxybenzofuran-2-yl)-2H-pyran-2-one]
24 | 10 to 100 |  | CC(=O)Oc1c(C)c(-c2cc3cccc(OC(C)=O)c3o2)oc(=O)c1C [Example 284, 4-acetyloxy-6-(7-acetyloxybenzofuran-2-yl)-3,5-dimethyl-2H-pyran-2-one]
25 |  | < 10 | CC(=O)Oc1c(C)c(-c2cc3cccc(OCc4ccccc4)c3o2)oc(=O)c1C [Example 285, 4-acetyloxy-6-(7-benzyloxybenzofuran-2-yl)-3,5-dimethyl-2H-pyran-2-one]
26 | 10 to 100 |  | Cc1c(-c2cc3cccc(OCc4ccccc4)c3o2)oc(=O)c(C)c1O [Example 286, 6-(7-benzyloxybenzofuran-2-yl)-3,5-dimethyl-4-hydroxy-2H-pyran-2-one]
27 | 10 to 100 |  | CC(=O)Oc1c(C)c(-c2cc3ccccc3o2)oc(=O)c1C(C)C [Example 287, 4-acetyloxy-6-(benzofuran-2-yl)-3-isopropyl-5-methyl-2H-pyran-2-one]
28 |  | < 10 | COC(=O)c1ccc2oc(-c3oc(=O)c(C)c(O)c3C)cc2c1 [Example 290, 3,5-dimethyl-4-hydroxy-6-(5-(methoxycarbonyl)benzofuran-2-yl)-2H-pyran-2-one]
29 |  | < 10 | COCOc1ccc2cc(-c3oc(=O)c(C)c(O)c3C)oc2c1 [Example 291, 3,5-dimethyl-4-hydroxy-6-(6-methoxymethoxybenzofuran-2-yl)-2H-pyran-2-one]
30 | 10 to 100 |  | COCOc1ccc2cc(-c3oc(=O)c(C)c(OC(C)=O)c3C)oc2c1 [Example 292, 4-acetyloxy-3,5-dimethyl-6-(6-methoxymethoxybenzofuran-2-yl)-2H-pyran-2-one]
31 | 10 to 100 |  | CC(=O)Oc1c(C)c(-c2cc3cc(C(=O)Nc4ccccc4)ccc3o2)oc(=O)c1C [Example 295, 4-acetyloxy-3,5-dimethyl-6-(5-(phenylcarbamoyl)benzofuran-2-yl)-2H-pyran-2-one]
32 | 10 to 100 |  | CC(=O)Oc1c(C)c(-c2cc3cc(OC(=O)c4ccccc4)ccc3o2)oc(=O)c1C [Example 296, 4-acetyloxy-6-(5-benzoyloxybenzofuran-2-yl)-3,5-dimethyl-2H-pyran-2-one]
33 |  | < 10 | Cc1c(-c2cc3cc(N(C)S(=O)(=O)c4ccc(Cl)cc4)ccc3o2)oc(=O)c(C)c1O [Example 297, 6-(5-(N-(4-chlorophenylsulfonyl)-N-methylamino)benzofuran-2-yl)-3,5-dimethyl-4-hydroxy-2H-pyran-2-one]
34 |  | < 10 | Cc1c(-c2cc3cc(C(=O)N(C)c4ccccc4)ccc3o2)oc(=O)c(C)c1O [Example 299, 3,5-dimethyl-4-hydroxy-6-(5-(N-methyl-N-phenylcarbamoyl)benzofuran-2-yl)-2H-pyran-2-one]
35 |  | < 10 | Cc1c(-c2cc3cc(C(=O)N4CCc5ccccc5C4)ccc3o2)oc(=O)c(C)c1O [Example 302, 3,5-dimethyl-4-hydroxy-6-(5-(1,3,4-trihydroisoquinolin-2-ylcarbonyl)benzofuran-2-yl)-2H-pyran-2-one]
36 |  | < 10 | Cc1c(-c2cc3cc(OCc4cncc(O)c4)ccc3o2)oc(=O)c(C)c1O [Example 304, 3,5-dimethyl-4-hydroxy-6-(5-(5-hydroxy-3-pyridylmethoxy)benzofuran-2-yl)-2H-pyran-2-one]
37 |  | < 10 | Cc1c(-c2cc3cc(C(=O)Nc4ccc(S(N)(=O)=O)cc4)ccc3o2)oc(=O)c(C)c1O [Example 305, 3,5-dimethyl-4-hydroxy-6-(5-(4-(sulfamoyl)phenylcarbamoyl)benzofuran-2-yl)-2H-pyran-2-one]
38 |  | < 10 | Cc1c(-c2cc3cc(C(=O)NCc4ccncc4)ccc3o2)oc(=O)c(C)c1O [Example 306, 3,5-dimethyl-4-hydroxy-6-(5-(4-pyridylmethylcarbamoyl)benzofuran-2-yl)-2H-pyran-2-one]
39 |  | < 10 | Cc1c(-c2cc3cc(C4CCNCC4)ccc3o2)oc(=O)c(C)c1O [Example 307, 3,5-dimethyl-4-hydroxy-6-(5-(4-piperidinyl)benzofuran-2-yl)-2H-pyran-2-one]
40 |  | < 10 | Cc1c(-c2cc3cc(C(=O)N(C)Cc4ccccc4)ccc3o2)oc(=O)c(C)c1O [Example 308, 6-(5-(N-benzyl-N-methylcarbamoyl)benzofuran-2-yl)-3,5-dimethyl-4-hydroxy-2H-pyran-2-one]

Row | SMILES | IC50 [1] [µM] | IC50 [2] [µM]
41 | Cc1c(-c2cc3cc(N(C)C(=O)OC(C)(C)C)ccc3o2)oc(=O)c(C)c1O [Example 255, 6-(5-(N-(t-butoxycarbonyl)-N-methylamino)benzofuran-2-yl)-3,5-dimethyl-4-hydroxy-2H-pyran-2-one] |  | < 10
